For assay [1], the system named is iPSCs-derived CD34+ cells. Put plainly: proplatelet formation, iPSC-derived CD34+ cells. Format: cell-based, human. As to conditions: 10 μM; DMSO about 47%; FIG. 19D. The procedure:
iPSC-derived CD34^+ cells (prepared by the method as described in Example 3-2) and umbilical cord blood-derived CD34^+ cells were seeded at 1*10^6 cells per well to 4 ml StemSpan™ SFEM 11+50 ng/ml SCF+50 ng/ml TPO+50 ng/ml IL-6+20 ng/ml IL-3, in a 12-well plate, with 1 ml medium for each well, and 3 wells in total for each cell line, to which 10 μM RO4929097, 10 μM DAPT, and the same volume of DMSO as control, were added, respectively, and the time was recorded as Day 0. The liquid was changed every 3 days, and the culture condition was 37° C., 5% CO2. After iPSC-derived CD34^+ cells were incubated for 6 days, and umbilical cord blood-derived CD34^+ cells were incubated for 9 days, the following experiment was carried out.
Proplatelet formation of MKs referred to mature megakaryocytes, which extended long and branched filaments and cytoplasmic protrusions.

The next assay deals with normal iPSC BC1. The assay is described as follows: in vitro megakaryocyte lineage differentiation of iPSC BC1 (spin-EB), flow cytometry at Day 14. Format: cell-based, human. As to conditions: for decrease of proportion of HSPCs (CD34+CD45+) vs DMSO control / proportion of MKPs (CD34+CD41+) produced, increased fold vs DMSO control (set as 1) / proportion of mature megakaryocytes MKs (CD41+CD42+) produced, increased fold vs DMSO control (set as 1): FIG. 7A; for production of megakaryocyte progenitor cells and/or mature megakaryocytes in vitro: screen in the in vitro differentiation system of stem cells. How it is done: BC1 cell line was cultured in E8 medium, under the culture condition of 37° C., 5% CO2, and was passaged at (1:5)-(1:10) every 3-4 days depending on the concentration of cells. The cells were incubated in 0.5 mM EDTA, at room temperature for 2 min, and then were re-suspended and split up and down with E8 medium, and transferred to a culture dish that had been coated with Vitronectin one hour before.
During differentiation, spin-embryoid body (spin-EB) method was used (Ng E S, Davis R, Stanley E G, Elefanty A G, A protocol describing the use of a recombinant protein-based, animal product-free medium (APEL) for human embryonic stem cell differentiation as spin embryoid bodies, Nat Protoc. 2008; 3(5): 768-76.). At Day 0 (D0) after differentiation, iPSCs reached a confluence of above 85% (confluence refers to the percentage of the surface of a culture dish that is covered by adherent cells). After digestion with Accutase at 37° C. for 3 min, the cells were neutralized and split in SFM medium (50% IMDM, 50% Ham's F12, and the added reagents and factors including: human albumin, monothioglycerol, Glutamax, Chemically Defined Lipid Concentrate, L-Ascorbic acid 2-phosphate sesquimagnesium salt hydrate, ITS-X), counted, and centrifuged. After the cells were re-suspended in SFM, cytokines, i.e. 10 μM ROCK inhibitor (Rho-associated protein kinase inhibitor), 10 ng/ml bFGF, and 10 ng/ml BMP4, were added. Cells were seeded to a round-bottom 96-well plate, at 3000 or 5000 cells/50 μl for each well (3000 or 5000 cells were seeded to each well, in a volume of 50 μl for each well). At Day 2, 50 μl SFM medium+10 ng/ml bFGF+10 ng/ml BMP4+100 ng/ml SCF+20 ng/ml VEGF was added to each well. At Day 5, Day 8, and Day 11, 50 μl SFM medium+10 ng/ml bFGF+10 ng/ml BMP4+50 ng/ml SCF+10 ng/ml VEGF was added to each well, wherein 100 μl old medium was pipetted off at Day 8, and 10 ng/ml thrombopoietin (TPO) was added to each well at Day 11.
At Day 14 (D14), single cells (suspending cells) surrounding embryoid bodies (EBs) were collected. The cells were used in the following flow cytometry.
The cell surface markers (CD34, CD45, CD41, CD42) of the collected cells were detected by flow cytometer. The assay was as followed.
The detection was carried out in four tubes: the first tube was a negative tube that was not labeled with any flow antibody; the second tube was labelled with two antibodies CD34-APC and CD45-PE; the third tube was labeled with CD34-APC and CD41-PE; and the fourth tube was labeled with CD41-PE and CD42-APC, wherein CD34^+CD45^+represented the population of hematopoietic stem/progenitor cells (HSPCs), CD34^+CD41^+ represented the population of megakaryocyte progenitor cells (MKPs), and CD41^+CD42^+ represented the population of mature megakaryocytes (MKs).
(1) The BC1 cell line used was the same as the one used in Example 1, and was divided into three groups, wherein two 96-well plates were used for each group, and the cells were seeded at 5000 cells/50 μl to each well. In vitro differentiation was carried out by reference to the steps in Example 1, wherein the step of adding a drug was carried out in accordance with the following steps in I-III groups:
I. At Day 0 after differentiation, 10 μM RO4929097 was added, and DMSO was added to the control well.
III. At Day 2 after differentiation, 10 μM RO4929097, 10 μM L-685458, and 10 μM DAPT were added, respectively; in addition, at Day 5 after differentiation, 10 μM RO4929097, 10 μM L-685458, and 10 μM DAPT were added, respectively.
(2) The cells were collected for flow cytometry analysis, and as to the steps, please refer to the Example 1 above. […]
I. At Day 0 after differentiation, 10 μM RO4929097, and 10 μM DAPT were added, respectively.
II. At Day 2 after differentiation, 10 μM RO4929097, and 10 μM DAPT were added, respectively.
III. At Day 5 after differentiation, 10 μM RO4929097, and 10 μM DAPT were added, respectively.
IV. […]

[2] abbreviates: 10 μM at Day 5 after in vitro differentiation, found by comparison.

“Also recorded” adds a separate entry of the source.

Regarding `C[C@H](NC(=O)Cc1cc(F)cc(F)c1)C(=O)N[C@H](C(=O)OC(C)(C)C)c1ccccc1` [DAPT], in assay [1], the “proportion of proplatelet-bearing MKs in 100 differentiated cells” value is roughly 50%. For the same compound, in the assay on normal iPSC BC1 (10 μM added at Day 2), the “decrease of proportion of HSPCs (CD34+CD45+) vs DMSO control” value is 35%; the “proportion of MKPs (CD34+CD41+) produced, increased fold vs DMSO control (set as 1)” value is on record as “about 1.5 folds”; the “proportion of mature megakaryocytes MKs (CD41+CD42+) produced, increased fold vs DMSO control (set as 1)” value is recorded as “about 2.4 folds”. Besides, in the assay with normal iPSC BC1 (10 μM added at Day 2, FIG. 9), the “number of MKPs (CD34+CD41+) produced, increase vs DMSO control” value (from here on “number of MKPs … increase vs DMSO control”) is listed as 2.5 folds and the “number of mature megakaryocytes MKs (CD41+CD42+) produced, increase vs DMSO control” value is 4.3 folds. For the same compound, in the assay with normal iPSC BC1 (10 μM added at Day 5, FIG. 7B), the “proportion of HSPCs produced, increased fold vs DMSO control (set as 1)” value was “about 1.5 folds”; the “proportion of MKPs produced, increased fold vs DMSO control (set as 1)” value is “about 1.5 folds”; the “proportion of mature megakaryocytes MKs produced, increased fold vs DMSO control (set as 1)” value was “about 4.1 folds”; the “total number of hematopoietic cells, increase vs control group” value is 2.8 folds. Also, in the assay with normal iPSC BC1 (10 μM added at Day 5, FIG. 10), the “number of HSPCs (CD34+CD45+), increase vs DMSO control” value was found to be 2.8 folds; the “number of MKPs … increase vs DMSO control” value is “about 6.5 folds”; the “number of mature megakaryocytes MKs (CD41+CD42+) produced, increase vs DMSO control” value was “about 6.7 folds”. Also, in the assay with normal iPSC BC1 (10 μM added at Day 8, FIG. 12), the “number of MKPs … increase vs DMSO control” value was 1.5 folds and the “number of mature megakaryocytes MKs (CD41+CD42+) produced, increase vs DMSO control” value was found to be 1.5 folds. For the same compound, the “number of mature megakaryocytes MKs (CD41+CD42+) produced, increase vs DMSO control” value with normal iPSC BC1 (10 μM added at Day 11, FIG. 13) was found to be 1.3 folds. In the assay with normal iPSC BC1 (setting [2]), the “promotion of the production of mature megakaryocytes” value is recorded as roughly 12 folds and the “promotion of the production of megakaryocyte progenitor cells” value came to 4 folds. Besides, in the assay with normal iPSC BC1, the “production of megakaryocyte progenitor cells and/or mature megakaryocytes in vitro” value is “significantly promote”.

Regarding `CC(C)(C(=O)NCC(F)(F)C(F)(F)F)C(=O)N[C@@H]1C(=O)Nc2ccccc2-c2ccccc21` [RO4929097], in assay [1], the “proportion of proplatelet-bearing MKs in 100 differentiated cells” value is “about 46%”. For the same compound, in the assay on normal iPSC BC1 (10 μM added at Day 0, FIG. 5), the “proportion of HSPCs (CD34+CD45+)” value is on record as roughly 0%, the “proportion of MKPs (CD34+CD41+)” value is roughly 0% and the “proportion of MKs (CD41+CD42+)” value is on record as roughly 0%. In addition, the “formation of hematopoietic embryoid body (EB)” value in the assay on normal iPSC BC1 (10 μM added at Day 0 after differentiation) is reported as “no hematopoietic embryoid body EB was formed; also recorded: no hematopoietic embryoid body (EB) could be formed”. Moreover, in the assay on normal iPSC BC1 (10 μM added at Day 2, FIG. 6), the “increase of proportion of mature megakaryocytes MKs (CD41+CD42+) produced vs DMSO control” value is 64% and the “increase of proportion of megakaryocyte progenitor cells MKPs (CD34+CD41+) produced vs DMSO control” value amounted to 67%. Further, in the assay on normal iPSC BC1 (10 μM added at Day 2), the “decrease of proportion of HSPCs (CD34+CD45+) vs DMSO control” value is 40%; the “proportion of MKPs (CD34+CD41+) produced, increased fold vs DMSO control (set as 1)” value is given as “about 1.4 folds”; the “proportion of mature megakaryocytes MKs (CD41+CD42+) produced, increased fold vs DMSO control (set as 1)” value is listed as “about 2.5 folds”. Also, in the assay on normal iPSC BC1 (10 μM added at Day 2, FIG. 9), the “number of MKPs … increase vs DMSO control” value came out at 2.5 folds and the “number of mature megakaryocytes MKs (CD41+CD42+) produced, increase vs DMSO control” value was 4.3 folds. For the same compound, in the assay on normal iPSC BC1 (10 μM added at Day 5, FIG. 7B), the “decrease of proportion of HSPCs vs DMSO control” value is 11%; the “proportion of mature megakaryocytes MKs produced, increased fold vs DMSO control (set as 1)” value is reported as “about 2.6 folds”; the “total number of hematopoietic cells, increase vs control group” value is on record as “did not change”. In the assay with normal iPSC BC1 (10 μM added at Day 5, FIG. 10), the “number of HSPCs (CD34+CD45+), increase vs DMSO control” value worked out at 2.8 folds; the “number of MKPs … increase vs DMSO control” value is given as “about 6.5 folds”; the “number of mature megakaryocytes MKs (CD41+CD42+) produced, increase vs DMSO control” value is reported as “about 6.7 folds”. In addition, in the assay on normal iPSC BC1 (10 μM added at Day 8, FIG. 12), the “number of MKPs … increase vs DMSO control” value came out at 1.5 folds and the “number of mature megakaryocytes MKs (CD41+CD42+) produced, increase vs DMSO control” value is given as 1.5 folds. Besides, the “number of mature megakaryocytes MKs (CD41+CD42+) produced, increase vs DMSO control” value with normal iPSC BC1 (10 μM added at Day 11, FIG. 13) is 1.3 folds. Besides, in the assay with normal iPSC BC1 (15 μM added at Day 2, FIG. 6, not as significant as 10 μM), the “effect on promoting the production of MKPs and MKs” value was “a certain effect on promoting the production of MKPs and MKs”. For the same compound, the “production of megakaryocyte progenitor cells and/or mature megakaryocytes in vitro” value in the assay on normal iPSC BC1 is given as “significantly promote”.

The record behind these values is patent publication US20200022998A1, “MEDICAL USE OF NOTCH4 OR INHIBITORS THEREOF” (BEIJING INSTITUTE OF GENOMICS, CHINESE ACADEMY OF SCIENCES, priority 2016, published 2020).
